Data taken from patent publication US20160115542A1, “BIOMARKER OF Nrf2 ACTIVATION” (MOCHIDA PHARMACEUTICAL CO., LTD., priority 2013, published 2016).

Tests used:
FGF21 [1] = assay: Time-course of plasma FGF21 concentration after single Nrf2 activator administration; format: in vivo, mouse; conditions: db/db mice, single oral administration 30 μmol/kg
Method: (§1) FGF21 plasma concentration was measured using mouse/rat FGF21 Quantikine ELISA Kit (R & D Systems, Minneapolis, Minn., USA).
(§2) CDDO-Im was used as the Nrf2 activator, and orally administered to db/db mice in 30 μmol/kg. Blood and tissue were collected under isoflurane anesthesia after certain hours from the administration, and expression of the Nrf2 target gene Nqo1 in liver and plasma FGF21 concentration were measured in the same manner as in the method described in (1-2). The following primers and probes were used: […]

mouse Fgf21 reporter = assay: FGF21 promoter (mouse Fgf21 reporter) luciferase assay in Hepa1 cells; format: cell-based; conditions: 100 nM, 48 hours
Method: Cloning of the mouse FGF21 promoter region was performed using a known technique. By using the mouse Fgf21 […] sequence as a template, a sequence (about 2.1 kbp) amplified with the primers 1.1 and 1.2 below was cloned into pGL4.15 vector (Promega) to create a mouse Fgf21 reporter vector.
The mouse Nrf2 cDNA sequence was cloned into pcDNA3.1/V5-His B vector (Invitrogen) to create a mouse Nrf2 expression vector.
Mouse hepatoma cells Hepa1c1c7 (Hepa1) were cultured in Dulbecco's Modified Eagle medium (Wako) supplemented with 10% fetal bovine serum, and 1% penicillin-streptomycin (Gibco). The mouse Fgf21 reporter vector and mouse Nrf2 expression vector, or the mouse Fgf21 reporter vector and an empty vector (mock) were transfected into Hepa1 cells using Lipofectamine 2000 Transfection Reagent (Invitrogen). The cells were cultured for 6 hours, and the medium was removed. The cells were further cultured for 48 hours after adding a medium containing 100 nM of Nrf2 activator CDDO-Im (2-cyano-3,12-dioxooleana-1,9(11)-dien-28-oic acid imidazol) or 0.1% dimethylsulfoxide (vehicle; Wako). Luciferase activity was then measured using a luminometer (Berthold).

FGF21 [2] = assay: FGF21 induction by administration of Nrf2 activator in diabetic db/db mice (plasma ELISA, hepatic qPCR); format: in vivo, mouse; conditions: oral 10 mg/kg once a day for 1 week
Method: as §1
(§3) Total RNA was extracted from liver tissue using Isogen RNA extract kit (Nippon Gene), and reverse-transcribed to cDNA using SuperScript III (Invitrogen). Quantitative real-time PCR (qPCR) was carried out using TaqMan probes using an ABI 7300 system (Applied Biosystems). Relative expression of genes was normalized against Hprt (hypoxanthine guanine phosphoribosyl transferase) mRNA. The following primers and probes were used: […]
Using spontaneous diabetic db/db mice, plasma FGF21 concentration and hepatic Fgf21 gene expression level were compared after administration of the Nrf2 activator. CDDO-Im was used as the Nrf2 activator, and orally administered in 10 mg/kg, once a day for 1 week. Blood and tissue were collected under isoflurane anesthesia after certain hours from the administration, and plasma FGF21 concentration and hepatic Fgf21 mRNA expression level were measured in the same manner as in the method described in (1-2).

Nqo1 = assay: Time-course of hepatic Nqo1 gene expression after single Nrf2 activator administration; format: in vivo, mouse; conditions: db/db mice, single oral administration 30 μmol/kg
Method: as §3, §2

[3] = system: high-fat-diet (HFD)-induced obesity; conditions: repetitive administration; cited from earlier work
[4] = system: HFD-induced obesity model and diabetic db/db model mice; conditions: cited from earlier work
[5] = system: type 2 diabetes model rats; conditions: cited from earlier work
[6] = system: HFD-induced insulin resistance and obesity; conditions: cited from earlier work
[7] = system: STZ-induced type 1 diabetic mice; conditions: cited from earlier work

CC1(C)CC[C@]2(C(=O)n3ccnc3)CC[C@]3(C)[C@H](C(=O)C=C4[C@@]5(C)C=C(C#N)C(=O)C(C)(C)[C@@H]5CC[C@]43C)[C@@H]2C1 [CDDO-Im, 1-[2-cyano-3,12-dioxooleana-1,9(11)-dien-28-oyl]imidazole]
plasma FGF21 concentration (FGF21 [1]): increased
time postdose until which increased plasma FGF21 concentration was maintained (FGF21 [1]): 48 h
luciferase activity enhancement compared with the vehicle (mouse Fgf21 reporter; Fgf21 reporter + empty vector (mock)): about 2 fold
luciferase activity with transfection of mouse Nrf2 expression vector and addition of compound (mouse Fgf21 reporter; Fgf21 reporter + mouse Nrf2 expression vector): further increased
induction of hepatic FGF21 gene expression level in Nrf2 gene knockout db/db mice (FGF21 [2]; Nrf2 gene knockout db/db mice): abolished
induction of plasma FGF21 concentration in Nrf2 gene knockout db/db mice (FGF21 [2]; Nrf2 gene knockout db/db mice): abolished
hepatic FGF21 gene expression level (FGF21 [2]; db/db mice, vs vehicle): significantly increased
plasma FGF21 concentration (FGF21 [2]; db/db mice, vs vehicle): significantly increased
Nqo1 gene expression in liver (Nqo1): increased
time for which increased hepatic Nqo1 expression level was sustained after administration (Nqo1): 48 h
high-fat-diet (HFD)-induced obesity [3]: prevents

COC(=O)[C@]12CCC(C)(C)C[C@H]1[C@H]1C(=O)C=C3[C@@]4(C)C=C(C#N)C(=O)C(C)(C)[C@@H]4CC[C@@]3(C)[C@]1(C)CC2 [CDDO-Me, 2-cyano-3,12-dioxooleana-1,9(11)-dien-28-oic acid methyl ester]
blood glucose level and plasma lipid level [4]: reduce

O=C(/C=C/c1ccc(O)c2c1[C@H](C(=O)O[C@H](Cc1ccc(O)c(O)c1)C(=O)O)[C@@H](c1ccc(O)c(O)c1)O2)O[C@H](Cc1ccc(O)c(O)c1)C(=O)O [lithospermic acid B (LAB), lithospermic acid B]
β cell injury [5]: protected β cell injury

Cc1c(-c2cnccn2)ssc1=S [oltipraz]
HFD-induced insulin resistance and obesity [6]: attenuates

C[S+]([O-])CCCCN=C=S (stereo not drawn) [sulforaphane]
β cell injury [7]: protected β cell injury
